Experimental data reported in patent US12157743B2, “Solid forms of Alpha-1062 gluconate” (priority 2021, dated 2024).
Entries after “also recorded” stand apart in the source; their conditions may differ.

Key:
[1] = Dynamic vapor sorption (DVS) isotherm; assay type: physicochemical; conditions: for DVS hysteresis: 5 to 95 to 5% RH; for XRPD of post DVS sample (solid form): material recovered after DVS cycle ending at 5% RH
From the text: As used herein, DVS (Dynamic Vapor Sorption) is a gravimetric technique to measure the rate and amount of absorption of a solvent by a sample under controlled conditions. […]

[2] = Relative humidity stressing of solid samples, XRPD; assay type: physicochemical
From the text: (§1) To investigate the stability of the four pure crystalline forms of Alpha-1062 Gluconate, water activity (aw) slurries using a variety of mixed aqueous/organic solvent systems (Table 6) along with relative humidity stressing (Table 7) were used to define the regions of stability for the given hydrates of Alpha-1062 Gluconate.

[3] = Water activity (aw) slurries in mixed aqueous/organic solvent systems, XRPD; assay type: physicochemical; conditions: for Result (solid form after slurry): ambient; for Water activity at which the form is the most stable form: from water activity slurries and RH stressing, Form C: above 0.12 aw up to the value
From the text: as §1

[4] = Polymorph screen: ambient slurries of Form A in solvents, XRPD; assay type: physicochemical; conditions: 14 d
Experimental: A polymorph screening study was initiated to investigate the presence and identity of various solid materials that may be possible for Alpha-1062 Gluconate. This study used lot CA19-1144 as the starting material and utilized various solvent systems and conditions to isolate and study the materials produced during the studies (Table 5). The various materials were analyzed by XRPD and the various solid forms identified as shown (FIG. 6).

[5] = Heat / vacuum stressing analysed by XRPD; assay type: physicochemical
Experimental: Form B: Alpha-1062 Gluconate, Sample 8235-82-08 (Table 10). Form B is a tetrahydrate crystalline lattice. It appears that at least one of the four water sites in the crystal lattice is somewhat labile. […] The formula unit volume of 772 Å^3 calculated from the indexing results is larger than Form A by 84 Å^3. […] A broad endotherm with an onset of 66° C. (concurrent with weight loss in the TGA) is observed in the DSC consistent with desolvation. […] Upon desorption, 1.8% weight loss from 95-15% RH followed by 6.8% weight loss from 15-5% RH was observed. The DVS data was corrected for water content measured by KF at 57% RH (FIG. 18). A stable plateau of between 3.6 and 3.9 mol/mol of water for Form B is evident between 15 and 85% RH.
Form C: Alpha-1062 Gluconate, Sample 8235-87-02 (Table 11). Form C was determined to be a monohydrate crystal lattice occupied at only about 0.4 to 0.5 mol/mol of water. […] The XRPD pattern was successfully indexed by a single primitive monoclinic unit cell. The formula unit volume of 706 Å^3 calculated from the indexing results is larger than Form A by 18 Å^3. […] An endotherm with an onset of 119° C. is observed in the DSC. • Form C (sample 8235-92-04) was held at 11% RH for seven days and analyzed by XRPD and DSC for comparison (sample 8296-08-01). […] The DVS data was corrected for water content measured by KF at 11% RH (FIG. 25). […]

[6] = Storage and XRPD reanalysis; assay type: physicochemical; conditions: reanalyzed
From the text: Material G: Alpha-1062 Gluconate, Samples 8235-87-01 and 8235-100-02 (Table 15). Material G has been observed from evaporative experiments of both 1,4-dioxane and THF. […] Based on the spontaneous conversion, Material G is metastable with Form B at that condition. Material G was not observed during any of the water activity slurries or relative humidity work.
Amorphous: Alpha-1062 Gluconate, sample 8235-76-13 (Table 16) has been observed from slow evaporation from methanol (Table 5). […] No significant impurity increases were observed by ^1H NMR. • Thermal Analysis (FIG. 35). A cyclic DSC was conducted to determine the glass transition (Tg) temperature of the amorphous solid. The glass transition temperature was determined to be near 41° C. Decomposition was observed upon continued heating with no nucleation.

[7] = steady-state, human brain vs blood; cited from earlier work
[8] = IPA/H2O 97:03 v/v, 0.31 aw, 13 d
[9] = MEK/H2O 98:02 v/v, 0.42 aw, 13 d
[10] = water activity slurries and RH stressing

In the case of `COc1ccc2c3c1O[C@H]1C[C@@H](OC(=O)c4ccccc4)C=C[C@@]31CCN(C)C2.O=C(O)C(O)C(O)C(O)C(O)CO` [Form A, Alpha-1062 gluconate], the “Hygroscopicity (DVS assessment)” value [1] is reported as “significant hygroscopicity above 75% RH”, the DVS hysteresis [1] is reported as “Hysteresis was observed” and the DVS hysteresis ([1]; listed as CA19-1144) is reported as “hysteresis observed”. For the same compound, the DVS wt. gain ([1]; from 5 to 75% RH (sorption)) was 0.57 % wt, the DVS wt. gain ([1]; from 5 to 75% RH (sorption), listed as CA19-1144) was 0.57% wt. gain from 5 to 75% RH and the DVS wt. gain ([1]; from 75 to 85% RH (sorption)) was 2.97 % wt. The DVS wt. gain ([1]; from 75 to 85% RH (sorption), listed as CA19-1144) was 2.96% wt. gain from 75 to 85% RH, the DVS wt. loss ([1]; from 85 to 5% RH (desorption)) was 2.98% wt. loss from 85 to 5% RH and the DVS wt. gain ([1]; from 85 to 95% RH (sorption)) was 8.7 % wt. The DVS wt. gain ([1]; from 85 to 95% RH (sorption), listed as CA19-1144) was 8.67% wt. gain from 85 to 95% RH, the DVS wt. loss ([1]; from 95 to 85% RH (desorption)) was 1.73% wt. loss from 95 to 85% RH and the “XRPD of post DVS sample (solid form)” value [1] was “Form A+minor peaks of Form B”. For the same compound, the “XRPD of post DVS sample (solid form)” value ([1]; listed as CA19-1144) was “Form A + B (trace)”, the “Water gain at stable desorption plateau” value ([1]; weight within stable plateau on desorption) was “more than 3 mol/mol” and the “Result (solid form by XRPD)” value ([2]; 43% RH, 5 d) was “kinetically stable”. The “Result (solid form by XRPD)” value ([2]; 75% RH, 1 d) was “D + minor A”, the “Result (solid form by XRPD)” value ([2]; 75% RH, 2 d) was “D + minor B” and the “Result (solid form after slurry)” value ([3]; MEK/H2O 98:02 v/v, 0.42 aw, 1 d) was “C + B”. The “Result (solid form after slurry)” value ([3]; MEK/H2O 98:02 v/v, 0.42 aw, 2 d) was “C + B”, the “Result (solid form after slurry)” value ([3]; MEK/H2O 99:01 v/v, 0.27 aw, 7 d) was “C + A” and the “Water activity at which the form is the most stable form” value [3] was “less than 0.12 aw”. For the same compound, the “Result (solid form after slurry)” value ([4]; EtOH) was “C + A” and the “Result (solid form after slurry)” value ([4]; acetone) was “C + D”.
In the case of `COc1ccc2c3c1O[C@H]1C[C@@H](OC(=O)c4ccccc4)C=C[C@@]31CCN(C)C2.O=C(O)C(O)C(O)C(O)C(O)CO` [Form B, Alpha-1062 gluconate], the “Hygroscopicity (DVS assessment)” value [1] is reported as “limited hygroscopicity”, the DVS wt. loss ([1]; from 15-5% RH (desorption)) is reported as 6.8% wet loss from 15-5% RH % wt and the “XRPD of post DVS sample (solid form)” value [1] is reported as “anhydrous Form A”. For the same compound, the “Result (solid form by XRPD)” value ([2]; 0% RH, P2O5, 1 d) was “dehydrate to Form A”, the “Result (solid form by XRPD)” value ([2]; 57% RH, 4 d) was “remained Form B” and the “Solid form by XRPD after heating” value ([5]; 40-75° C., 10 min (in DSC)) was “partial dehydration and conversion to a mixture of Forms D and C; also recorded: Form D + C + peak”. The “Result (solid form after slurry)” value [3, 8] was “C + B”, the “Result (solid form after slurry)” value [3, 9] was “C + B” and the “Water activity at which the form is the most stable form” value [3] was “Above 0.5 aw”. For the same compound, the “Water activity of solvent systems in which the form was observed” value ([3]; in equilibrium Form B/Form C between 0.31 and 0.52 aw) was “above 0.52 aw”.
For `COc1ccc2c3c1O[C@H]1C[C@@H](OC(=O)c4ccccc4)C=C[C@@]31CCN(C)C2.O=C(O)C(O)C(O)C(O)C(O)CO` [Form C + B, Alpha-1062 gluconate], the “Result (solid form by XRPD)” value ([2]; 0% RH, P2O5, 1 d) was “C+ A”.
For `COc1ccc2c3c1O[C@H]1C[C@@H](OC(=O)c4ccccc4)C=C[C@@]31CCN(C)C2.O=C(O)C(O)C(O)C(O)C(O)CO` [Form C, Alpha-1062 gluconate], the “Hygroscopicity (DVS assessment)” value [1] was “significant hygroscopicity above 75% RH”, the DVS hysteresis [1] was “hysteresis observed” and the “Water retained after DVS” value ([1]; DVS corrected for KF water content at 11% RH) was about 1.4 mol/mol. For the same compound, the DVS wt. gain ([1]; from 5-65% RH (sorption)) was 0% wt. gain from 5-65% RH, the DVS wt. gain ([1]; from 5 to 75% RH (sorption)) was “no significant weight gain” and the DVS wt. retained ([1]; from 75-5% RH (desorption)) was ~3% wt. retained from 75-5% RH. The “XRPD of post DVS sample (solid form)” value [1] was “mixture of Forms C and B; also recorded: Form C + B”, the “Result (solid form by XRPD)” value ([2]; 0% RH, P2O5, 1 d) was “C + minor A” and the “Result (solid form by XRPD)” value ([2]; 11% RH, 4 d) was “remained Form C”. For the same compound, the “Result (solid form by XRPD)” value ([2]; 11% RH, 7 d) was “remained Form C”, the “Solid form by XRPD after vacuum storage” value ([5]; vacuum, 45° C., 3 hrs) was “remained Form C with the presence of a minor amount of Form A” and the “Result (solid form after slurry)” value [3, 8] was “C + B”. For the same compound, the “Result (solid form after slurry)” value [3, 9] was “C + B” and the “Water activity at which the form is the most stable form” value [3] was “up to 0.5 aw”.
For `COc1ccc2c3c1O[C@H]1C[C@@H](OC(=O)c4ccccc4)C=C[C@@]31CCN(C)C2.O=C(O)C(O)C(O)C(O)C(O)CO` [Form D + A, Alpha-1062 gluconate], the “Result (solid form by XRPD)” value ([2]; 75% RH, 4 d) was “B + D”.
With `COc1ccc2c3c1O[C@H]1C[C@@H](OC(=O)c4ccccc4)C=C[C@@]31CCN(C)C2.O=C(O)C(O)C(O)C(O)C(O)CO` [Form D + B, Alpha-1062 gluconate] the “Result (solid form by XRPD)” value ([2]; 75% RH, 1 d) was “D + B”.
With `COc1ccc2c3c1O[C@H]1C[C@@H](OC(=O)c4ccccc4)C=C[C@@]31CCN(C)C2.O=C(O)C(O)C(O)C(O)C(O)CO` [Form D, Alpha-1062 gluconate] the “Result (solid form by XRPD)” value ([2]; 75% RH, 1 d) was “Form D + minor B”, the “Relative humidity at which the form converts to Form C” value [2, 10] was under 52 % RH and the “Relative humidity of extended exposure at which the form converts to Form B” value [2, 10] was at least 52 % RH. For the same compound, the “Result (solid form after slurry)” value [3, 8] was “C + B”, the “Result (solid form after slurry)” value [3, 9] was “C + B” and the “Water activity at which the form is the most stable form” value [3] was “does not appear stable at any of the conditions evaluated”.
With `COc1ccc2c3c1O[C@H]1C[C@@H](OC(=O)c4ccccc4)C=C[C@@]31CCN(C)C2.O=C(O)C(O)C(O)C(O)C(O)CO` [Forms B + D, Alpha-1062 gluconate] the “Result (solid form after slurry)” value ([3]; MEK/H2O 97:03 v/v, 0.52 aw, 7 d) was “B + C”.
With `COc1ccc2c3c1O[C@H]1C[C@@H](OC(=O)c4ccccc4)C=C[C@@]31CCN(C)C2.O=C(O)C(O)C(O)C(O)C(O)CO` [Material G, Alpha-1062 gluconate] the “Solid form by XRPD on reanalysis” value ([6]; 5 weeks) was “partially converted to Form B; also recorded: Material G + Form B”.
With `COc1ccc2c3c1O[C@H]1C[C@@H](OC(=O)c4ccccc4)C=C[C@@]31CCN(C)C2.O=C(O)C(O)C(O)C(O)C(O)CO` [amorphous Alpha-1062 Gluconate, Alpha-1062 gluconate] the “Solid form by XRPD on reanalysis” value ([6]; 5 weeks) was “amorphous”, the “Solid form by XRPD on reanalysis” value ([6]; 5 weeks, listed as Amorphous) was “remain amorphous” and the “Solid form by XRPD on reanalysis” value ([6]; 13 days) was “Form B + C”. For the same compound, the “Solid form by XRPD on reanalysis” value ([6]; 13 days, listed as Amorphous) was “spontaneously crystallized to a mixture of Forms B and C”.
For `COc1ccc2c3c1O[C@H]1C[C@@H](O)C=C[C@@]31CCN(C)C2` [galantamine], the “brain-to-blood concentration ratio (BBCR)” value [7] is given as under 2.
